The text below walks through data of patent US10065941B2, “Aminotriazine derivative and pharmaceutical composition comprising the same” (Shionogi & Co., Ltd., priority 2013, dated 2018).

Sequence of human P2X3 receptor (P56373 whole entry): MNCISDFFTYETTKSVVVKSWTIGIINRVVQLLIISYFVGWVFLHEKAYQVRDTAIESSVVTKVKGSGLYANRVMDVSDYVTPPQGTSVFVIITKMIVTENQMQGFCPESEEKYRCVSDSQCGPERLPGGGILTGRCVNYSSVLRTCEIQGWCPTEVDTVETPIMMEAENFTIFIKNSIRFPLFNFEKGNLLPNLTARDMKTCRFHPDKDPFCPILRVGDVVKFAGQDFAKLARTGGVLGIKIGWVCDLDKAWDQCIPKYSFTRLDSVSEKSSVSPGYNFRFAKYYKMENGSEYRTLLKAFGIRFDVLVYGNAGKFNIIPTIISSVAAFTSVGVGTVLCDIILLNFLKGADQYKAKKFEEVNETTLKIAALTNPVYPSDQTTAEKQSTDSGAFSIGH

The first series concerns the target human P2X3 receptor (Homo sapiens (Human), UniProt P56373). Put plainly: Evaluation of human P2X3 receptor inhibitory activity (Test Example 1). It is filed as cell-based. Conditions: C6BU-1 cell transfected with human P2X3 receptor gene, FLIPR 384. The method, boiled down:
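FLIPR calcium read-out: signal taken as peak fluorescence after ATP addition divided by starting fluorescence, and IC50 calculated from it. Compound added 5 min before 150 nM ATP solution (pre-dispense stock) to Fluo-3-AM-loaded C6BU-1 cells stably transfected with human P2X3; HEPES buffer pH 7.5 with probenecid.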
One may read the IC50 as the concentration needed to halve the response being measured. Higher therefore signals weaker potency in that assay. The molecule `C[C@@H](Cn1c(=O)[nH]/c(=N\c2ccc(Oc3cccc(F)n3)cc2)n(Cc2ccc(F)cc2F)c1=O)C(=O)O` [Compound I-029] had an IC50 of 14 nM.
In the case of `C[C@@H](Cn1c(=O)[nH]/c(=N\c2ccc(Oc3cnc(C#N)nc3)cc2)n(Cc2ccc(Cl)cc2)c1=O)C(=O)O` [Compound R-246], the IC50 came to 6 nM.
Molecule `CC1(C)OC[C@@H](Cn2c(=O)[nH]/c(=N\c3ccc(Oc4ccccn4)cc3)n(Cc3ccc(Cl)cc3)c2=O)O1` [Compound R-247] came in with an IC50 of 5 nM.
`O=c1[nH]/c(=N\c2ccc(Oc3ccccn3)cc2)n(Cc2ccc(Cl)cc2)c(=O)n1CCCOC1CCCCO1` (stereo not drawn) [Compound R-248] had an IC50 of 5 nM.
In the case of `C[C@@H](C(=O)O)[C@H](C)n1c(=O)[nH]/c(=N\c2ccc(Oc3cnc(C#N)nc3)cc2)n(Cc2ccc(Cl)cc2)c1=O` [Compound R-249], the IC50 came to 6 nM.
Turning to `O=c1[nH]/c(=N\c2ccc(Oc3ccccn3)cc2)n(Cc2ccc(Cl)cc2)c(=O)n1C[C@@H](O)CO` [Compound R-250], the IC50 is 9 nM.
Consider `O=c1[nH]/c(=N\c2ccc(Oc3ccccn3)cc2)n(Cc2ccc(Cl)cc2)c(=O)n1CCCO` [Compound R-251, 1-(4-chlorobenzyl)-3-(3-hydroxypropyl)-6-[4-(2-pyridyloxy)phenylimino]-1,3,5-triazinane-2,4-dione], for which 5 nM corresponded to half-maximal inhibition (IC50).
The molecule `C=C(CO)Cn1c(=O)[nH]/c(=N\c2ccc(Oc3ccccn3)cc2)n(Cc2ccc(Cl)cc2)c1=O` [Compound R-254, 1-(4-chlorobenzyl)-3-(2-hydroxymethyl-2-propenyl)-6-[4-(2-pyridyloxy)phenylimino]-1,3,5-triazinane-2,4-dione] displayed an IC50 of 3 nM.
Still for that read-out and setting: the value for `O=c1[nH]/c(=N\c2ccc(Oc3ccccn3)cc2)n(Cc2ccc(Cl)cc2)c(=O)n1CC(O)(CO)CO` [Compound R-255, 1-(4-chlorobenzyl)-3-(2-hydroxymethyl-2,3-dihydroxypropyl)-6-[4-(2-pyridyloxy)phenylimino]-1,3,5-triazinane-2,4-dione] was 5 nM; that for `NC(=O)NC(=O)Cn1c(=O)[nH]/c(=N\c2ccc(Oc3ccccn3)cc2)n(Cc2ccc(Cl)cc2)c1=O` [Compound R-256] was 2 nM; that for `O=c1[nH]/c(=N\c2ccc(Oc3ccccn3)cc2)n(Cc2ccc(Cl)cc2)c(=O)n1CCO` [Compound R-257, 1-(4-chlorobenzyl)-3-(2-hydroxyethyl)-6-[4-(2-pyridyloxy)phenylimino]-1,3,5-triazinane-2,4-dione] was 10 nM.
`O=C(O)CCn1c(=O)[nH]/c(=N\c2ccc(Oc3cccc(F)n3)cc2)n(Cc2ccc(CF)cc2)c1=O` [Compound R-275] returned an IC50 of 23 nM.
In turn, `O=C(O)CCn1c(=O)[nH]/c(=N\c2ccc(Oc3ncccc3F)cc2)n(Cc2ccc(CF)cc2)c1=O` [Compound R-276] registered a concentration for half-maximal inhibition (IC50) of 42 nM.
Same read-out and setting: the value for `Cc1ccc(Cn2c(=O)n(CCCC(=O)O)c(=O)[nH]/c2=N\c2ccc(Oc3ncccc3F)cc2)cc1` [Compound R-277] was 14 nM; that for `Cc1ccc(Cn2c(=O)n(CCCC(=O)O)c(=O)[nH]/c2=N\c2ccc(Oc3ccc(F)cn3)cc2)cc1` [Compound R-278] was 15 nM; that for `Cc1ccc(Cn2c(=O)n(CCCC(=O)O)c(=O)[nH]/c2=N\c2ccc(Oc3cccc(F)n3)cc2)cc1` [Compound R-279] was 7 nM.
In turn, `Cc1ccc(Cn2c(=O)n(CCC(=O)O)c(=O)[nH]/c2=N\c2ccc(Oc3ccccn3)c(F)c2)cc1` [Compound R-280] showed a 50% inhibitory concentration (IC50) of 9 nM.
For `O=C(O)CCn1c(=O)[nH]/c(=N\c2ccc(Oc3ccccn3)c(F)c2)n(Cc2ccc(Cl)cc2)c1=O` [Compound R-281], the midpoint of inhibition, the IC50, lay at 7 nM.
In turn, `Cc1ccc(Cn2c(=O)n(CCC(=O)O)c(=O)[nH]/c2=N\c2ccc(Oc3ccccn3)c(C)c2)cc1` [Compound R-282] came in with an IC50 of 23 nM.
On to `Cc1cc(/N=c2\[nH]c(=O)n(CCC(=O)O)c(=O)n2Cc2ccc(Cl)cc2)ccc1Oc1ccccn1` [Compound R-283], for which half-maximal inhibition (IC50) was put at 28 nM.
On the same count and under the same terms, the value for `O=C(O)CCn1c(=O)[nH]/c(=N\c2ccc(Oc3ccc(Cl)cn3)cc2)n(Cc2ccc(Cl)cc2)c1=O` [Compound R-284] was 5 nM.
`Cc1ccc(Cn2c(=O)n(CCC(=O)O)c(=O)[nH]/c2=N\c2ccc(Oc3ccc(Cl)cn3)cc2)cc1` [Compound R-285] showed an IC50 of 6 nM.
In turn, `COC(=O)CCn1c(=O)[nH]/c(=N\c2ccc(Oc3cccc(F)n3)cc2)n(Cc2ccc(CF)cc2)c1=O` [Compound R-286] yielded an IC50 of 6 nM.
`COC(=O)CCn1c(=O)[nH]/c(=N\c2ccc(Oc3ccc(Cl)cn3)cc2)n(Cc2ccc(Cl)cc2)c1=O` [Compound R-287]: the half-inhibitory concentration (IC50) was determined as 6 nM.
`COC(=O)CCn1c(=O)[nH]/c(=N\c2ccc(Oc3ncccc3F)cc2)n(Cc2ccc(CF)cc2)c1=O` [Compound R-288] returned an IC50 of 12 nM.
Consider `COC(=O)CCn1c(=O)[nH]/c(=N\c2ccc(Oc3ccc(Cl)cn3)cc2)n(Cc2ccc(C)cc2)c1=O` [Compound R-289], for which the IC50 was determined as 5 nM.
Turning to `COC(=O)CCn1c(=O)[nH]/c(=N\c2ccc(Oc3ccccn3)c(C)c2)n(Cc2ccc(C)cc2)c1=O` [Compound R-290], the IC50 worked out at 6 nM.
For `COC(=O)CCn1c(=O)[nH]/c(=N\c2ccc(Oc3ccccn3)c(C)c2)n(Cc2ccc(Cl)cc2)c1=O` [Compound R-291], inhibition was half-maximal at 6 nM (IC50).
`COC(=O)CCn1c(=O)[nH]/c(=N\c2ccc(Oc3ccccn3)c(F)c2)n(Cc2ccc(C)cc2)c1=O` [Compound R-292]: the IC50 stood at 4 nM.
Same read-out and setting: the value for `COC(=O)CCn1c(=O)[nH]/c(=N\c2ccc(Oc3ccccn3)c(F)c2)n(Cc2ccc(Cl)cc2)c1=O` [Compound R-293] was 4 nM.
`CCOC(=O)CCCn1c(=O)[nH]/c(=N\c2ccc(Oc3ncccc3F)cc2)n(Cc2ccc(C)cc2)c1=O` [Compound R-294]: it took 6 nM to reach half-maximal inhibition (IC50).
For the molecule `CCOC(=O)CCCn1c(=O)[nH]/c(=N\c2ccc(Oc3ccc(F)cn3)cc2)n(Cc2ccc(C)cc2)c1=O` [Compound R-295], the IC50 is 6 nM.
Still for that read-out and setting: the value for `CCOC(=O)CCCn1c(=O)[nH]/c(=N\c2ccc(Oc3cccc(F)n3)cc2)n(Cc2ccc(C)cc2)c1=O` [Compound R-296] was 5 nM; that for `O=C(O)CCn1c(=O)[nH]/c(=N\c2ccc(Oc3ccccn3)c(Cl)c2)n(Cc2ccc(Cl)cc2)c1=O` [Compound R-297] was 8 nM.
In the case of `Cc1ccc(Cn2c(=O)n(CCC(=O)O)c(=O)[nH]/c2=N\c2ccc(Oc3ccccn3)c(Cl)c2)cc1` [Compound R-298], half-maximal inhibition (IC50) was put at 9 nM.
Turning to `CC(=O)c1cccc(Oc2ccc(/N=c3\[nH]c(=O)n(CCC(=O)O)c(=O)n3Cc3ccc(Cl)cc3)cc2)n1` [Compound R-299], 20 nM corresponded to half-maximal inhibition (IC50).
Same read-out and setting: the same measure for `COC(=O)CCn1c(=O)[nH]/c(=N\c2ccc(Oc3ccccn3)c(Cl)c2)n(Cc2ccc(Cl)cc2)c1=O` [Compound R-300]: 8 nM; for `COC(=O)CCn1c(=O)[nH]/c(=N\c2ccc(Oc3ccccn3)c(Cl)c2)n(Cc2ccc(C)cc2)c1=O` [Compound R-301]: 5 nM; for `COC(=O)CCn1c(=O)[nH]/c(=N\c2ccc(Oc3cccc(C(C)=O)n3)cc2)n(Cc2ccc(Cl)cc2)c1=O` [Compound R-302]: 6 nM.
In the case of `COC(=O)CCn1c(=O)[nH]/c(=N\c2ccc(Oc3ccc(C(C)=O)cn3)cc2)n(Cc2ccc(Cl)cc2)c1=O` [Compound R-303], it took 3 nM to reach half-maximal inhibition (IC50).
In turn, `COC(=O)CCn1c(=O)[nH]/c(=N\c2ccc(Oc3ccc(C(C)O)cn3)cc2)n(Cc2ccc(Cl)cc2)c1=O` (stereo not drawn) [Compound R-304] had an IC50 of 4 nM.
The same measure, in the same setting: the same measure for `CC(=O)c1ccc(Oc2ccc(/N=c3\[nH]c(=O)n(CCC(=O)O)c(=O)n3Cc3ccc(Cl)cc3)cc2)nc1` [Compound R-305]: 7 nM; for `CC(O)c1ccc(Oc2ccc(/N=c3\[nH]c(=O)n(CCC(=O)O)c(=O)n3Cc3ccc(Cl)cc3)cc2)nc1` (stereo not drawn) [Compound R-306]: 14 nM; for `CCOC(=O)Cn1c(=O)[nH]/c(=N\c2ccc(Oc3ccccn3)cc2)n(Cc2ccc(F)cc2)c1=O` [Compound R-307]: 13 nM.
`CCOC(=O)Cn1c(=O)[nH]/c(=N\c2ccc(Oc3ccc(F)cn3)cc2)n(Cc2ccc(Cl)cc2)c1=O` [Compound R-309] yielded an IC50 of 4 nM.
`CCOC(=O)Cn1c(=O)[nH]/c(=N\c2ccc(Oc3ccc(Cl)cn3)cc2)n(Cc2ccc(Cl)cc2)c1=O` [Compound R-310] gave an IC50 of 4 nM.
`O=C(O)Cn1c(=O)[nH]/c(=N\c2ccc(Oc3ccc(F)cn3)cc2)n(Cc2ccc(Cl)cc2)c1=O` [Compound R-311] returned an IC50 of 428 nM.
In turn, `O=C(O)Cn1c(=O)[nH]/c(=N\c2ccc(Oc3ccc(Cl)cn3)cc2)n(Cc2ccc(Cl)cc2)c1=O` [Compound R-312] yielded an IC50 of 350 nM.
With `CCOC(=O)Cn1c(=O)[nH]/c(=N\c2ccc(Oc3ccc(C#N)cn3)cc2)n(Cc2ccc(Cl)cc2)c1=O` [Compound R-313], half-maximal inhibition (IC50) required 3 nM.
`N#Cc1ccc(Oc2ccc(/N=c3\[nH]c(=O)n(CC(=O)O)c(=O)n3Cc3ccc(Cl)cc3)cc2)nc1` [Compound R-314]: the IC50 is 48 nM.

System in another series: not listed separately
Put plainly: Metabolism stability test, pooled human hepatic microsomes (Test Example 11). It is filed as in vitro ADME. The settings on record: human liver microsomes, 30 minutes, compound concentration 0.5 μmol/L. On the procedure:
Using commercially available pooled human hepatic microsomes, a test compound is reacted for a constant time, a remaining rate is calculated by comparing a reacted sample and an unreacted sample, thereby, a degree of metabolism in liver is assessed.
A reaction was performed (oxidative reaction) at 37° C. for 0 minute or 30 minutes in the presence of 1 mmol/L NADPH in 0.2 mL of a buffer (50 mmol/L tris-HCl pH 7.4, 150 mmol/L potassium chloride, 10 mmol/L magnesium chloride) containing 0.5 mg protein/mL of human liver microsomes. After the reaction, 50 μL of the reaction solution was added to 100 μL of a methanol/acetonitrile=1/1 (v/v), mixed and centrifuged at 3000 rpm for 15 minutes. The test compound in the supernatant was quantified by LC/MS/MS, and a remaining amount of the test compound after the reaction was calculated, letting a compound amount at 0 minute reaction time to be 100%.
The remaining rate at the compound concentration 0.5 μmol/L are shown below.
For orientation: Microsomes from liver hold many membrane-bound enzymes, among them those of drug oxidation.
Turning to `C[C@@H](Cn1c(=O)[nH]/c(=N\c2ccc(Oc3cccc(F)n3)cc2)n(Cc2ccc(F)cc2F)c1=O)C(=O)O` [Compound I-029], the “Metabolism Stability (remaining rate)” value is given as 100%.
